This note sets out measurements from article PMC4735867, “Leukotriene E4 is a full functional agonist for human cysteinyl leukotriene type 1 receptor-dependent gene expression” (Scientific Reports, 2016).

The experiment addresses T1, CysLT1 (cysteinyl leukotriene type 1 receptor) (Homo sapiens, UniProt Q9Y271).
T1 construct: gene CYSLTR1
T1 sequence (Q9Y271 1-337): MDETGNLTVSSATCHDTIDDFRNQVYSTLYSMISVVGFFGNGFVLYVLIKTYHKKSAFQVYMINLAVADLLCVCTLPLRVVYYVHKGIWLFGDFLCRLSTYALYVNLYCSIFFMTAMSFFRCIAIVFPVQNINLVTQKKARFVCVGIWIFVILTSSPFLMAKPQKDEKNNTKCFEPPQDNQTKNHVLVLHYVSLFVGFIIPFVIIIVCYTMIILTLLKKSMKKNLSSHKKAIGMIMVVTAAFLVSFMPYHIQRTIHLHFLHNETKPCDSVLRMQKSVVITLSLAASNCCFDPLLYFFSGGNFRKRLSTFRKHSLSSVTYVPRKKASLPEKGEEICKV
The experiment is classed as cell-based.

As for `CC(C)(O)c1ccccc1CC[C@@H](SCC1(CC(=O)O)CC1)c1cccc(/C=C/c2ccc3ccc(Cl)cc3n2)c1` [Montelukast], the “antagonism (100 nmol/L) of LTD4/LTE4-induced calcium mobilisation and CCL4 expre” value is “Montelukast fully inhibiting LTE4 responses in LAD2 as well as LTD4 responses in LAD2 and LUVA cells”.
